Measurements taken from article PMC9939733 (The Journal of Biological Chemistry, 2023).
Numbering of substitutions follows the chain as printed. Values joined by “and” are separate entries in the source; they are usually repeats but may differ in a detail not shown here. Equal values may be shown once. Where a name gives a salt, the structure may show the parent alone.

The compounds below were run against T1, R140Q IDH2 (Homo sapiens, UniProt P48735, R140Q) (assay: Absorbance assay (NADPH consumption), substrate turnover in the absence of 2OG). Conditions: not given.
T1 construct: made in house; host or cells: Sf21 insect cells (cell pellets prepared at Evotec)
T1 sequence (P48735 40-452 R140Q): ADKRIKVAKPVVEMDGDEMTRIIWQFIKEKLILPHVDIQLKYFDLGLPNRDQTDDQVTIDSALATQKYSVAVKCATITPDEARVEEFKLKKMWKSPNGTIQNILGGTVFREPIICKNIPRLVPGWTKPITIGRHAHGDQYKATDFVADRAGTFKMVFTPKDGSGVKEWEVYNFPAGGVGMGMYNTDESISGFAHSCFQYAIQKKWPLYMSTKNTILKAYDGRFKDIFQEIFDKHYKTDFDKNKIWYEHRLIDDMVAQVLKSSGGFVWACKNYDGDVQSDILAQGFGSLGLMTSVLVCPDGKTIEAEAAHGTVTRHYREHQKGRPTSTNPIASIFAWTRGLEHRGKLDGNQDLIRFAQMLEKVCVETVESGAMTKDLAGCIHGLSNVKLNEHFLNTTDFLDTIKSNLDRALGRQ
Assay type: biochemical
In short: (§1)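 Tech. quadruplicates; cpds pipetted simultaneously, reaction initiated by dispenser addition.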

SMILES	activity [%] (%-substrate conversion after 20 min incubation)
O=C1CC(C(=O)O)C(C(=O)O)O1 (racemic) [DL-isocitric acid lactone]	< 10

Same assay, conditions: no 2OG; 6.0 mM test compound, 0.03 μM R140Q IDH2, 50 μM NADPH; 2OG = 100

SMILES	activity [%] (%-substrate conversion after 20 min incubation)
CC(O)C(=O)O (racemic) [DL-lactic acid]	< 10
NC(=O)C(=O)O [oxamic acid]	< 10
COC(=O)/C=C/C(=O)O [mono-methyl fumarate]	< 10
O=C(O)[C@@H]1CCCN1 [L-proline]	< 10
C[C@@](O)(CC(=O)O)C(=O)O [(R)-citramalic acid]	< 10
O=C(O)CCC(=O)O [succinic acid]	< 10
C=C(CC(=O)O)C(=O)O [itaconic acid]	< 10

These compounds were tested against T2, R172K IDH2 (Homo sapiens, UniProt P48735, R172K) in the same assay as above. Conditions: not given.
T2 construct: made in house; host or cells: Sf21 insect cells (cell pellets prepared at Evotec)
T2 sequence (P48735 40-452 R172K): T1 sequence (P48735 40-452 R140Q) with Q101R, R133K
Assay type: biochemical
In short: as §1

SMILES	activity [%] (%-substrate conversion after 20 min incubation)
O=C1CC(C(=O)O)C(C(=O)O)O1 (racemic) [DL-isocitric acid lactone]	< 10

Same assay, conditions: no 2OG; 1.0 mM test compound, 0.03 μM R172K IDH2, 50 μM NADPH; 2OG = 100

SMILES	activity [%] (%-substrate conversion after 20 min incubation)
CC(O)C(=O)O (racemic) [DL-lactic acid]	< 10
NC(=O)C(=O)O [oxamic acid]	< 10
COC(=O)/C=C/C(=O)O [mono-methyl fumarate]	< 10
O=C(O)[C@@H]1CCCN1 [L-proline]	< 10
C[C@@](O)(CC(=O)O)C(=O)O [(R)-citramalic acid]	< 10
O=C(O)CCC(=O)O [succinic acid]	< 10
C=C(CC(=O)O)C(=O)O [itaconic acid]	< 10

These compounds were tested against T1, R140Q IDH2 (assay: Absorbance assay, variant activity in the presence of equimolar 2OG (inhibition screen)). Conditions: not given.
Assay type: biochemical
In short: as §1

SMILES	activity [%] (%-substrate conversion after 20 min incubation)
O=C1CC(C(=O)O)C(C(=O)O)O1 (racemic) [DL-isocitric acid lactone]	118 ± 18

Same assay, conditions: 6.0 mM 2OG and 6.0 mM test compound, 0.03 μM R140Q IDH2, 50 μM NADPH

SMILES	activity [%] (%-substrate conversion after 20 min incubation)
CC(O)C(=O)O (racemic) [DL-lactic acid]	115 ± 9
NC(=O)C(=O)O [oxamic acid]	117 ± 3
COC(=O)/C=C/C(=O)O [mono-methyl fumarate]	98 ± 4
O=C(O)[C@@H]1CCCN1 [L-proline]	106 ± 2
C[C@@](O)(CC(=O)O)C(=O)O [(R)-citramalic acid]	110 ± 9
O=C(O)CCC(=O)O [succinic acid]	124 ± 11
C=C(CC(=O)O)C(=O)O [itaconic acid]	96 ± 3

Each compound was assayed against T2, R172K IDH2 in the same assay as above. Conditions: not given.
Assay type: biochemical
In short: as §1

SMILES	activity [%] (%-substrate conversion after 20 min incubation)
O=C1CC(C(=O)O)C(C(=O)O)O1 (racemic) [DL-isocitric acid lactone]	95 ± 3

Same assay, conditions: 1.0 mM 2OG and 1.0 mM test compound, 0.03 μM R172K IDH2, 50 μM NADPH

SMILES	activity [%] (%-substrate conversion after 20 min incubation)
CC(O)C(=O)O (racemic) [DL-lactic acid]	100 ± 8
NC(=O)C(=O)O [oxamic acid]	102 ± 7
COC(=O)/C=C/C(=O)O [mono-methyl fumarate]	92 ± 6
O=C(O)[C@@H]1CCCN1 [L-proline]	98 ± 4
C[C@@](O)(CC(=O)O)C(=O)O [(R)-citramalic acid]	100 ± 5
O=C(O)CCC(=O)O [succinic acid]	89 ± 2
C=C(CC(=O)O)C(=O)O [itaconic acid]	95 ± 7

What follows are compounds tested against T3, WT IDH1 (Homo sapiens, UniProt O75874) (assay: Absorbance assay, WT activity in the presence of equimolar DL-isocitrate (inhibition)). Conditions: not given.
T3 construct: made in house; host or cells: Escherichia coli BL21(DE3) pLyS
T3 sequence (O75874 whole entry): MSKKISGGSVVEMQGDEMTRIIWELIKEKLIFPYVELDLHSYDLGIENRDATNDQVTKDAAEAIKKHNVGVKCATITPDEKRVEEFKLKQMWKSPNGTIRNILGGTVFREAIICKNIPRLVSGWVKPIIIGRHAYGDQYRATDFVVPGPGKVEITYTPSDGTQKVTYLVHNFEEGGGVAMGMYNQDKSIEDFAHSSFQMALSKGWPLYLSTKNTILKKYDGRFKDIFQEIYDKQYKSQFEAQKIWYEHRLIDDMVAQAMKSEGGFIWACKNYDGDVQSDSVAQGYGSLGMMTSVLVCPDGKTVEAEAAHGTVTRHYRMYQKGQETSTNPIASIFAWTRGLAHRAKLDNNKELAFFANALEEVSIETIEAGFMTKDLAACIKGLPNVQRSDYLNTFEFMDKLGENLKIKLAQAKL
Assay type: biochemical
In short: as §1

SMILES	activity [%] (%-substrate conversion after 20 min incubation)
O=C1CC(C(=O)O)C(C(=O)O)O1 (racemic) [DL-isocitric acid lactone]	105 ± 2

Same assay, conditions: […] isocitrate and […] test compound, 75 μM NADP+, 2.0 nM WT IDH1

SMILES	activity [%] (%-substrate conversion after 20 min incubation)
CC(O)C(=O)O (racemic) [DL-lactic acid]	105 ± 6
NC(=O)C(=O)O [oxamic acid]	105 ± 2
COC(=O)/C=C/C(=O)O [mono-methyl fumarate]	102 ± 2
O=C(O)[C@@H]1CCCN1 [L-proline]	102 ± 1
C[C@@](O)(CC(=O)O)C(=O)O [(R)-citramalic acid]	101 ± 1
O=C(O)CCC(=O)O [succinic acid]	97 ± 2
C=C(CC(=O)O)C(=O)O [itaconic acid]	99 ± 1

The compounds below were run against T4, WT IDH2 (Homo sapiens, UniProt P48735) in the same assay as above. Conditions: not given.
T4 construct: made in house; host or cells: Sf21 insect cells (cell pellets prepared at Evotec)
T4 sequence (P48735 40-452): T1 sequence (P48735 40-452 R140Q) with Q101R
Assay type: biochemical
In short: as §1

SMILES	activity [%] (%-substrate conversion after 20 min incubation)
O=C1CC(C(=O)O)C(C(=O)O)O1 (racemic) [DL-isocitric acid lactone]	106 ± 2

Same assay, conditions: […] isocitrate and […] test compound, 75 μM NADP+, 2.0 nM WT IDH2

SMILES	activity [%] (%-substrate conversion after 20 min incubation)
CC(O)C(=O)O (racemic) [DL-lactic acid]	95 ± 5
NC(=O)C(=O)O [oxamic acid]	100 ± 1
COC(=O)/C=C/C(=O)O [mono-methyl fumarate]	98 ± 1
O=C(O)[C@@H]1CCCN1 [L-proline]	98 ± 1
C[C@@](O)(CC(=O)O)C(=O)O [(R)-citramalic acid]	99 ± 2
O=C(O)CCC(=O)O [succinic acid]	97 ± 3
C=C(CC(=O)O)C(=O)O [itaconic acid]	99 ± 2

What follows are compounds tested against T3, WT IDH1 (assay: Absorbance assay, substrate activity in the absence of DL-isocitrate). Conditions: not given.
Assay type: biochemical
In short: as §1

SMILES	activity [%] (%-substrate conversion after 20 min incubation)
O=C1CC(C(=O)O)C(C(=O)O)O1 (racemic) [DL-isocitric acid lactone]	~10% and 12 ± 4%

Same assay, conditions: no DL-isocitrate; […] test compound, 75 μM NADP+, 2.0 nM WT IDH1; compared to DL-isocitrate

SMILES	activity [%] (%-substrate conversion after 20 min incubation)
CC(O)C(=O)O (racemic) [DL-lactic acid]	< 10
NC(=O)C(=O)O [oxamic acid]	< 10
COC(=O)/C=C/C(=O)O [mono-methyl fumarate]	< 10
O=C(O)[C@@H]1CCCN1 [L-proline]	< 10
C[C@@](O)(CC(=O)O)C(=O)O [(R)-citramalic acid]	< 10
O=C(O)CCC(=O)O [succinic acid]	< 10
C=C(CC(=O)O)C(=O)O [itaconic acid]	< 10

Each compound was assayed against T4, WT IDH2 in the same assay as above. Conditions: not given.
Assay type: biochemical
In short: as §1

SMILES	activity [%] (%-substrate conversion after 20 min incubation)
O=C1CC(C(=O)O)C(C(=O)O)O1 (racemic) [DL-isocitric acid lactone]	~10% and 11 ± 1%

Same assay, conditions: no DL-isocitrate; […] test compound, 75 μM NADP+, 2.0 nM WT IDH2; compared to DL-isocitrate

SMILES	activity [%] (%-substrate conversion after 20 min incubation)
CC(O)C(=O)O (racemic) [DL-lactic acid]	< 10
NC(=O)C(=O)O [oxamic acid]	< 10
COC(=O)/C=C/C(=O)O [mono-methyl fumarate]	< 10
O=C(O)[C@@H]1CCCN1 [L-proline]	< 10
C[C@@](O)(CC(=O)O)C(=O)O [(R)-citramalic acid]	< 10
O=C(O)CCC(=O)O [succinic acid]	< 10
C=C(CC(=O)O)C(=O)O [itaconic acid]	< 10

The compounds below were run against T5, R132H IDH1 (Homo sapiens, UniProt O75874, R132H) (assay: Absorbance assay (NADPH consumption), substrate turnover in the absence of 2OG). Conditions: not given.
T5 sequence (O75874 whole entry R132H): as the sequence (O75874 whole entry) above, with R132H counted along it
Assay type: biochemical
Set-up: made in house; host or cells: Escherichia coli BL21(DE3) pLyS
In short: as §1

SMILES	activity [%] (%-substrate conversion after 20 min incubation)
O=C1CC(C(=O)O)C(C(=O)O)O1 (racemic) [DL-isocitric acid lactone]	< 10

Same assay, conditions: no 2OG; […] test compound, 0.03 μM R132H IDH1, 50 μM NADPH; 2OG = 100

SMILES	activity [%] (%-substrate conversion after 20 min incubation)
CC(O)C(=O)O (racemic) [DL-lactic acid]	< 10
NC(=O)C(=O)O [oxamic acid]	< 10
COC(=O)/C=C/C(=O)O [mono-methyl fumarate]	< 10
O=C(O)[C@@H]1CCCN1 [L-proline]	< 10
C[C@@](O)(CC(=O)O)C(=O)O [(R)-citramalic acid]	< 10
O=C(O)CCC(=O)O [succinic acid]	< 10
C=C(CC(=O)O)C(=O)O [itaconic acid]	< 10

Each compound was assayed against T5, R132H IDH1 (assay: Absorbance assay, variant activity in the presence of equimolar 2OG (inhibition screen)). Conditions: not given.
Assay type: biochemical
Set-up: made in house; host or cells: Escherichia coli BL21(DE3) pLyS
In short: as §1

SMILES	activity [%] (%-substrate conversion after 20 min incubation)
O=C1CC(C(=O)O)C(C(=O)O)O1 (racemic) [DL-isocitric acid lactone]	99 ± 2

Same assay, conditions: […] 2OG and […] test compound, 0.03 μM R132H IDH1, 50 μM NADPH

SMILES	activity [%] (%-substrate conversion after 20 min incubation)
CC(O)C(=O)O (racemic) [DL-lactic acid]	104 ± 8
NC(=O)C(=O)O [oxamic acid]	99 ± 2
COC(=O)/C=C/C(=O)O [mono-methyl fumarate]	90 ± 4
O=C(O)[C@@H]1CCCN1 [L-proline]	98 ± 1
C[C@@](O)(CC(=O)O)C(=O)O [(R)-citramalic acid]	95 ± 2
O=C(O)CCC(=O)O [succinic acid]	100 ± 4
C=C(CC(=O)O)C(=O)O [itaconic acid]	92 ± 2
